Data taken from patent US20080248008A1, “Inhibitors of Protein Kinase a Anchoring” (priority 2004, published 2008).
Entries after “also recorded” stand apart in the source; their conditions may differ.

Experiments:
StAR = StAR protein level in Y1 adrenal cells (immunoblot densitometry); format: cell-based, mouse
Description: Progesterone production and StAR protein level. Y1 cells were cultured overnight in 6-well plates at the density of 1.5×10^6 cells per well. To increase the basal level of StAR, the cells were pre-stimulated with 10 μM forskolin for 1 hour, washed twice with medium, before peptide loading. Thereafter, the cells were loaded with 50 μM of the arginine-coupled peptide for 5 hours before being treated with 5 μg/ml Actinomyocin D (Cat. No. A-9415, Sigma) for 30 min and stimulated with 10 μM forskolin (Cat. No. 344270, Calbiochem) or 10 IU/ml ACTH (Cat. No. A-6303, Sigma) for 12 hours. Media from cultures with different treatments were collected and diluted with plain medium to fall into the standard curves for the assay. Progesterone in the cell medium was measured by using either Spectria Progesterone RIA (Cat. No. 68521, Orion Diagnostica, Espoo, Finland) or DELFIA progesterone kit (Cat. No. A066-101, PerkinElmer) following the conditions recommended by the manufacture. The cells were lysed and the StAR protein was analysed by western blotting and the level measured by densiometric analysis.
StAR protein levels in the samples from Example 28 were analysed by immunoblotting. StAR consists of a 37-kDa precursor form containing an N-terminal mitochondrial targeting sequence and a processed 30-kDa mature protein (Epstein and Ormejohnson, 1991; Stocco and Sodeman, 1991). Y1 adrenal cells expressed a low basal level of StAR (FIG. 27, upper panel, lane 1). Upon forskolin stimulation, a significant increase in mature StAR protein (lane 2) occurred consistent with an increase in cholesterol transport over the mitochondrial membrane and a corresponding increase in steroid biosynthesis (bar diagram in FIG. 26). The forskolin-stimulated levels of StAR protein were reduced by 60% in MEME3-Arg11 treated cells (lane 5 and lower panel). In contrast, treatment with SM3-Arg11 reduced StAR levels by […] (lane 8, and lower panel). Thus, MEME3-Arg11 reduced StAR levels by […] as SM3-Arg11. […]

mice with MAIDS = assay: T cell proliferative response after in vivo treatment of mice with murine AIDS; conditions: 75 mg/kg/day intraperitoneal, 10 days
Description: Rad-LS infected mice with MAIDS (10-12 weeks postinfection) were treated with MEME3-Arg11 in doses corresponding to those used for other bioactive peptides in studies in mice. Parenteral administration was accomplished by injecting intraperitoneally peptide formulated in PBS. Thus, MAIDS mice were injected with vehicle (phosphate buffered saline, PBS, Ctr.) or treated with MEME3-Arg11 in PBS (M3) by intraperitoneal injection (75 mg/kg/day administered once daily) for 10 days (left panel). In parallel, healthy, uninfected mice were injected with PBS (Ctr.) or MEME3-Arg11 in PBS (M3) (right panel). Subsequently, T cell proliferative responses were assessed in vitro in a mixed population of unsorted lymph node mononuclear cells from treated and untreated animals by [^3H]-thymidine incorporation. T cell activation was accomplished in all samples by cross-ligation of anti-CD3 (mAb 2C11; 4 µg/ml). Cells were cultured for 72 h during which MEME3-Arg11 was added back. [^3H]-thymidine was included for the last 4 hours.

RI(Δ1-24) = molecular target: T1, RI(Δ1-24) (Bos taurus, UniProt P00514); assay: Co-precipitation with recombinant RI(Δ1-24) added to HEK293 lysate; format: binding; conditions: recombinant protein added to cell lysate
T1 construct: made in house; host or cells: E. coli BL21 (B121 [sic])
Excerpt: Constructs and mutagenesis. Oligonucleotides with the following sequences were directionally cloned into EGFP-C (Clonetech) vector via TOPO blunt vector (Invitrogen) by using SalI and BamHI sites. MEME3(+), 5′-GTC GAC-CTGGAGCAGTACGCCAACCAGCTGGCCGACCAGATCATCAAGGAGGCCACCGAG-GGA TCC-3′; MEME3 (−), 5′-GGA TCC-CTCGGTGGCCTCCTTGATGATCTGGTCGGCCAGCTGGTTGGCGTACTGCTCCAG-GTC GAC-3′; Scramble (+), 5′-GTCGACATCGAGAAGGAGCTGGCCCAGCAGTACCAGAACGCCGACGCCATCACCCTGGAGGGATCC-3′; and Scramble (−), 5′-GGATCCCTCCAGGGTGATGGCGTCGGCGTTCTGGTACTGCTGGGCCAGCTCCTTCTCGATGTCGAC-3′. The site specific mutation, A98S, was made in RI wild type cloned into pRSETB (Invitrogen) using a site specific-mutagenesis kit (Stratagene). RI( 1-11), RI(Δ1-15) and RI(Δ1-24) mutants were made by PCR and re-cloned into pRSETB (Invitrogen). All constructs were confirmed by sequencing.
HEK293 cells at […] were transfected with ten μg of plasmid DNA (GFP, GFP-MEME3 or GFP-Scrambled MEME3) by using the CaCl2 method. […]
In FIG. 4D, the co-precipitation of recombinant full length and N-truncated RI (added to the cell lysate) with MEME3 was detected by immunoblotting using a monoclonal antibody against RI (lane 2-4).

T1 sequence (P00514 25-380, stated change not applied): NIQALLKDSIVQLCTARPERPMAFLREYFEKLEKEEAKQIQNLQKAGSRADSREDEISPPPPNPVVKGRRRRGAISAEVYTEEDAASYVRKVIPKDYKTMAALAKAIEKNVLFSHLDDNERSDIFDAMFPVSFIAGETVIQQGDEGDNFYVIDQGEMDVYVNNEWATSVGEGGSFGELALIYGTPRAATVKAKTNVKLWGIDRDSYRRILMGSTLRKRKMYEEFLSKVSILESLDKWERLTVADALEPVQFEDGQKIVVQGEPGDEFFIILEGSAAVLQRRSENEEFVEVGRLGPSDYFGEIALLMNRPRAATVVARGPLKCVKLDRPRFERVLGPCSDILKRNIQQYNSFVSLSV

| Compound | reduction of StAR levels relative to SM3-Arg11 (StAR) | reduction of forskolin-stimulated levels of StAR protein (StAR; forskolin) [%] | basal StAR level (StAR; unstimulated) | T cell responses to anti-CD3 ([3H]-thymidine) compared to infected, control-treated mice (mice with MAIDS) | co-precipitation with RI(Δ1-24) (RI(Δ1-24)) |
| --- | --- | --- | --- | --- | --- |
| LEQYANQLADQIIKEATERRRRRRRRRrr [MEME3-Arg11] | twice as much | 60 | somewhat higher basal StAR level | significant increase (p=0.013); also recorded: increased more than three-fold | – |
| CC[C@H](C)[C@H](NC(=O)[C@H](CCC(N)=O)NC(=O)[C@H](CC(=O)O)NC(=O)[C@H](C)NC(=O)[C@H](CC(C)C)NC(=O)[C@H](CCC(N)=O)NC(=O)[C@H](CC(N)=O)NC(=O)[C@H](C)NC(=O)[C@H](Cc1ccc(O)cc1)NC(=O)[C@H](CCC(N)=O)NC(=O)[C@H](CCC(=O)O)NC(=O)[C@@H](N)CC(C)C)C(=O)N[C@H](C(=O)N[C@@H](CCCCN)C(=O)N[C@@H](CCC(=O)O)C(=O)N[C@@H](C)C(=O)N[C@H](C(=O)N[C@@H](CCC(=O)O)C(=O)N[C@@H](CCCCNC(=O)c1ccc2c(c1)C(=O)OC21c2ccc(O)cc2Oc2cc(O)ccc21)C(N)=O)[C@@H](C)O)[C@@H](C)CC [MEME3] | – | – | – | – | did not precipitate MEME3 |
